Laboratory results from patent US7553826B2, “Cytarabine monophosphate prodrugs” (Metabasis Therapeutics, Inc., priority 2002, dated 2009).
Converted amounts (≈) assume the structure as drawn.

Columns and labels:
[1] = Single dose i.p. bolus liver levels / liver targeting in mice; details: for reduction of peripheral exposure (liver targeting): administered intraperitoneally
Description: At specified times post injection, mice were anesthetized and exsanguinated via cardiac puncture. The whole liver was removed, and snap-frozen in liquid nitrogen, and homogenized using a Polytron homogenizer PT 10/35 (Brinkmann Instruments, Westbury, N.Y.) in 3 volumes of 10% (v/v) perchloric acid (PCA). After a 5 min centrifugation at 2,500×g, 1 mL of supernatant was neutralized using 0.3 mL 3 M KOH/3 M KHCO3 and mixed thoroughly. Samples were then centrifuged for 5 minutes and resulting supernatants were treated with periodate in order to remove endogenous ribonucleotides which otherwise might interfere with araCTP detection. […] Resulting samples were analyzed by HPLC as described below.
To measure bone marrow araCTP, the bone marrow samples were flushed from the marrow cavities of femurs with 1.2 ml saline into pre-weighed Eppendorf tubes. After centrifugation for 20-30 seconds (Eppendorf microfuge, 14,000 rpm) and removal of the supernatant, 12 volumes of 3% PCA (v/v) were added to the bone marrow cell pellets. Samples were then vortexed until the pellet was well dissolved and centrifuged as above for 10 min. Ninety μL of extracted supernatant was neutralized to pH 7-8 using 30 μL 1 M KOH/1 M KHCO3 and again centrifuged. Resulting supernatants were periodate-treated as above.
Samples (50 μL) were injected onto the column in 70% 10 mM ammonium phosphate buffer and 30% 1 M ammonium phosphate buffer, both at pH 3.5 and containing 6% ethanol. […] A standard curve was prepared by adding known amounts of araCTP into PCA extracts from control liver or bone marrow prior to neutralizing, and preparing HPLC samples accordingly.
To obtain plasma, blood was transferred to heparinized micro-collection tubes and centrifuged in an Eppendorf microfuge at 14,000 rpm for 2 minutes. Resulting plasma was collected, placed on dry ice, and subsequently stored at −20° C. On the day of analysis, proteins were precipitated by adding 1 mL acetonitrile to 100 μL of plasma. After 10 min centrifugation (Eppendorf microfuge, 14,000 rpm), the supernatant was removed and dried in a Savant SpeedVac Plus SC110A. Samples were reconstituted with 110 μL of mobile phase buffer (20 mM KH2PO4, pH 4.5), sonicated for 5 min, and centrifuged for 30 seconds. […] AraC and prodrugs were detected by absorbance at 280 nm and quantitated using standard curves obtained with spiked plasma samples processed as above.
Results are expressed as mean±standard error of the mean. Data were analyzed by repeated measures ANOVA, followed by the Tukey HSD post-hoc test for comparisons at individual time points when appropriate. A p-value of less than 0.05 was considered statistically significant. Dotted lines in figures indicate LOQ (limit of quantitation) using the indicated HPLC method.
(§1) In those studies, liver, plasma and bone marrow samples were obtained at necropsy to evaluate liver targeting.
(§2) Results are expressed as mean±standard error of the mean. When appropriate, AUC was calculated from time zero to the last time-point of the study. Liver targeting indices (LTIs) were calculated by dividing the liver araCTP AUC by the AUC for plasma araC (plasma LTI) or by the AUC for bone marrow araCTP (bone marrow LTI) for each compound. For the continuous infusion studies, the steady state araCTP levels were divided by the steady state plasma araC levels.

[2] = Liver araCTP and liver targeting with continuous i.v. infusion in rats
Excerpt: A saline filled blunt PE-50 tubing catheter (Intramedic, Becton Dickinson, Sparks, Md.) was inserted into the jugular vein, exteriorized between the scapulae and connected to a swivel-tethering constant infusion system (Lomir Biomedical, Inc., Malone, N.Y. and Harvard Apparatus, Inc., South Natick, Mass.). The tubing was filled with heparinized saline and sealed, and the animals allowed to recover for one to seven days.
After the various durations of infusion the animals were anesthetized by intra-catheter injections of the anesthetic mix described above. Blood samples were obtained via cardiac puncture using a 23-gauge needle attached to a heparin coated 3 cc syringe.
as §1, §2

Aqueous stability = format: physicochemical; details: 50 μM
Description: Diluted solutions (50 μM) were incubated at 37° C. in a Fisher Scientific dry bath incubator (catalog # 11-718-2) with samples collected every 24 hours and stored at −80° C. Plasma samples (100 μL) were quenched with 1 mL of acetonitrile. […] Samples were resuspended in 120 μL of mobile phase buffer before HPLC injection.
Samples were analyzed on an HP1090 or HP1100 (Hewlett Packard) HPLC using a C-18 Alltech Econosphere column, 150 mm×4.6 mm (catalog # 70065), with a C-18 Alltech Econosphere guard column, 7.5 mm×4.6 mm (catalog # 96121). Samples were eluted with a methanol gradient: 0% for 5 minutes, then increasing to 10% at 10 minutes, 30% at 20 minutes, and 60% at 25 minutes. The column was allowed to equilibrate in 0% methanol for 10 minutes before the next injection. The flow rate was 1 mL/minute with a column temperature of 40° C. Prodrugs eluted around 19.5 minutes and were monitored by UV absorbance at 280 nm. For prodrugs in aqueous conditions, the same method was employed except the methanol gradient was as follows: 0% for 5 minutes, increasing to 10% at 10 minutes, and 30% at 20 minutes with prodrug eluting around 20 minutes.

Solubility = format: physicochemical
Description: With each of the three buffer systems, saturating solutions of Compound A and Compound B were prepared as follows. […] The resultant vials were sealed and equilibrated by tumbling at 25° C. for a minimum of 24 h. At the end of the incubation period, prodrug that was not in solution was removed from the samples by filtration through a 0.45 μm pore size nylon syringe filter. These diluted samples were assayed by the HPLC method of example E.

human liver microsomes = assay: Enzyme kinetics of prodrug activation to araCMP in human liver microsomes; details: activation to araCMP
[3] = Mouse 5-day safety pharmacology; format: in vivo; details: mice; for histopathology of liver, kidney and small intestine: 100 mg/kg araC or 1000 mg/kg CE Compound C; for red blood cell parameters (erythrocyte numbers, hematocrit, hemoglobin): 5 days i.p.; for red blood cell parameters (erythrocyte numbers, hematocrit, hemoglobin) / Glucose: araC 30 and 100 mg/kg/day; for effect on body weight: daily i.p. 5 days, highest dose: araC 100 mg/kg/day; for Glucose: Compound C 1000 mg/kg/day
Description: AraC was purchased from Sigma Chemical Co. (St. Louis, Mo., catalog # C1768, lot # 39H5962). Compound C and araC were dissolved in sterile physiological saline. Stock solutions were prepared daily from pre-weighed drug. All but the highest concentrations were prepared by diluting the stock solutions using additional sterile saline. Any drug not used immediately was refrigerated and used within 24 hours. All prodrugs were dosed in cytarabine molar equivalents (CE).
Male NIH Swiss Webster mice (25 to 33 g body weight, Harlan Sprague Dawley, Indianapolis, Ind.) were injected i.p. with Compound C, araC or vehicle once a day on days 0-4, approximately 3 to 4 hours following the beginning of the vivarium light cycle. Doses for Compound C were 1000, 300, 100 and 30-mg/kg nucleoside equivalents/day (equal to 1848, 554, 185 and 55.4 mg/kg/day) whereas araC was administered at 100, 30, 10 and 3 mg/kg/day. The vehicle was saline. Body weights were recorded on days 0-4 immediately prior to compound administration and on day 5 prior to sacrifice. All mice were sacrificed on day 5 (23-25 hours following the last i.p. dose) by exsanguination under halothane anesthesia, and subsequent cervical dislocation. The blood from each animal was analyzed for blood chemistry and hematology parameters as described in Example H. Livers were excised and fixed in neutral-buffered 10% formalin, and bone marrow was flushed from the right femur using 1 ml PBS without calcium or magnesium and nucleated cell counts measured as in Example H.
EDTA-treated blood samples were submitted to LabCorp (LabCorp, San Diego, Calif.) for hematology analysis including erythrocyte and platelet numbers, hemoglobin, and hematocrit. Serum chemistry analysis was also performed by LabCorp. Tissue specimens from mice treated with vehicle or 100 mg/kg araC or 1000 mg/kg CE Compound C were coded and shipped in formalin to Comparative Biosciences (Mountain View, Calif.) for preparation of hematoxylin/eosin-stained tissue sections and histopathology evaluation. Specimen codes for the histopathology studies were: #1-7, Compound C 1000 mg/kg/day; #33-40, araC 100 mg/kg/day; #65-72, Saline vehicle.
Results are expressed as mean±standard error for 5-8 animals per dose group. For selected hematology parameters, data for each animal were also presented as a % of the mean of the vehicle group. Statistical analysis was performed by one-way ANOVA followed by Dunnett's post-hoc test for differences between a control group and multiple dose groups. A p-value of less than 0.05 was considered statistically significant.

[4] = Plasma stability in human plasma; format: in vitro ADME
Description: Male- and female-pooled human plasma (Bioreclamation Inc., Hickville, N.Y., catalog # […], lot # BRH02236) containing heparin as anticoagulant, pH of all plasma aliquots was 8.3. […] Samples (100 μL) were quenched with 1 mL of acetonitrile. […] Samples were resuspended in 120 μL of mobile phase buffer before HPLC analysis. For plasma samples, 40 μL or 50 μL samples were injected onto the column described in Example E with mobile phase buffer, 20 mM potassium phosphate buffer, pH 6.2 (Fisher Scientific, catalog # P261-1, various lots). All other HPLC analysis was performed as described in Example E.

[5] = rats, 200 mg CE/kg/day continuous intravenous infusion
[6] = Compound C 1000 mg/kg/day of nucleoside equivalents

**Q.** What does the source list for Nc1ccn([C@@H]2O[C@H](CO[P@]3(=O)OCC[C@H](c4ccncc4)O3)[C@@H](O)[C@@H]2O)c(=O)n1 [Compound B, 2(1H)-Pyrimidinone, 4-amino-1-[5-O-[(2S,4R)-2-oxido-4-(4-pyridinyl)-1,3,2-dioxaphosphorinan-2-yl]-β-D-arabinofuranosyl]]?
**A.** Liver araCTP Peak @ 1 hr ([1]; Mouse, 100 mg (cytarabine equivalents)/kg single IP injection): 27 nmol/g; LTI (Liver/plasma) ([1]; Mouse, 100 mg CE/kg single IP, liver araCTP AUC / plasma araC AUC): 19.6 nmol/g/μM; reduction of peripheral exposure (liver targeting) [1]: ~20 fold; liver araCTP peak at 60 minutes post injection ([1]; mice, single i.p. bolus, 100 mg/kg CE): 27.00 ± 4.04 nmol/g; reduction of peripheral exposure (liver targeting) ([2]; administered by continuous intravenous infusion): ~10 fold; LTI @ 24 hrs (Liver/plasma) [2, 5]: >12 nmol/g/μM; Liver araCTP 24 hr [2, 5]: 5.9 nmol/g; Liver araCTP @ 4 hr [2, 5]: 6.4 nmol/g; Plasma Prodrug steady state [2, 5]: 25 to 35 µM; Plasma araC steady state [2, 5]: <0.5 µM; liver araCTP compared with Compound A ([2]; rats, continuous infusion 200 mg/kg/24 hours CE): less araCTP in the liver than Compound A; t90 in aqueous solution (Aqueous stability; 100 mM Pi, pH 7.4, 37° C): 4 days; t90 in aqueous solution (Aqueous stability; 100 mM citrate, pH5.0, 37° C): 1.7 days; solubility (Solubility; 0.5 M Pi pH 8.0 buffer, 25° C): 10.2 mg/mL (≈ 23.2 mM); solubility (Solubility; 0.5 M citrate pH 4.0, 25° C): 94.6 mg/mL (≈ 215 mM); solubility (Solubility; 0.5 M citrate pH 7.0, 25° C): 9.0 mg/mL (≈ 20.4 mM); Vmax (human liver microsomes; 2 mg/mL human liver microsomes lot RQX, 1 mM NADPH, pH 7.4, 37° C, 5 min): 0.13 ± 0.02 nmol/min/mg; Km (human liver microsomes; human liver microsomes lot RQX): 3.13 ± 0.51 mM

**Q.** What does the source list for Nc1ccn([C@@H]2O[C@H](CO)[C@@H](O)[C@@H]2O)c(=O)n1 [AraC, 1-(β-D-Arabinofuranosyl)cytosine]?
**A.** AUC(0-t) ([1]; male, Swiss Webster, mouse, plasma, ip, 100 mg (cytarabine equivalents)/kg): 121 µM·h; Plasma araC steady state ([2]; rats, AraC at 2000 mg/kg/day continuous infusion): ~300 µM; histopathology of liver, kidney and small intestine [3]: no toxicologically relevant histopathologic changes; hepatotoxicity ([3]; 5-day repeated dose): No hepatotoxicity was observed; number of nucleated bone marrow cells, circulating PMNs, mononuclear cells, and platelets ([3]; 30 and 100 mg/kg/day i.p. for 5 days): significantly decreased; red blood cell parameters (erythrocyte numbers, hematocrit, hemoglobin) [3]: lowered erythrocyte numbers, hematocrit, and hemoglobin significantly; Creatinine ([3]; araC 100 mg/kg/day): lowered; bone-marrow cellularity, % of that in vehicle-treated animals ([3]; araC 100 mg/kg/day i.p. for 5 days): 11%; effect on body weight [3, 6]: progressive and statistically significant drop in body weight; Alkaline phosphatase ([3]; highest dose of araC (100 mg/kg/day)): significantly decreased; Glucose [3]: lowered

**Q.** Which “reduction of peripheral exposure (liver targeting)” value [1] does the source give for Nc1ccn([C@@H]2O[C@H](COP3(=O)OCCC(c4ccncc4)O3)[C@@H](O)[C@@H]2O)c(=O)n1 (relative stereo) [Compound C, 2(1H)-Pyrimidinone, 4-amino-1-[5-O-cis-[2-oxido-4-(4-pyridinyl)-1,3,2-dioxaphosphorinan-2-yl]-β-D-arabinofuranosyl]] here?
**A.** ~20 fold

**Q.** And the “reduction of peripheral exposure (liver targeting)” value ([2]; rat, in vivo, iv)?
**A.** ~10 fold

**Q.** What about the “half-lives in human plasma” value [4] of the same molecule?
**A.** > 1 days

**Q.** What about the “histopathology of liver, kidney and small intestine” value [3] of the same molecule?
**A.** no toxicologically relevant histopathologic changes

**Q.** And the hepatotoxicity ([3]; 5-day repeated dose)?
**A.** No hepatotoxicity was observed

**Q.** And the “safety relative to araC in terms of hematologic endpoints” value ([3]; 5-day repeated dose)?
**A.** ≥ 30 fold

**Q.** And the “red blood cell parameters (erythrocyte numbers, hematocrit, hemoglobin)” value [3]?
**A.** similarly affected these parameters, but at ten-fold higher doses

**Q.** What about the “dose required to reduce nucleated bone marrow cells, relative to araC” value [3, 6] of the same molecule?
**A.** 30 fold

**Q.** And the “PMN, mononuclear cell, or platelet numbers” value ([3]; any dose (30-1000 mg/kg/day CE) i.p. for 5 days)?
**A.** did not affect

**Q.** And the “effect on body weight” value [3, 6]?
**A.** no significant effect

**Q.** What about the Glucose [3] of the same molecule?
**A.** lowered
